This note sets out measurements from US7893252B2, “Selectively depolymerized galactomannan polysaccharide” (priority 2003, dated 2011).

For series [1], the system named is human colon tumor COLO 205. Briefly: Efficacy study in COLO 205 human colon tumor xenografts, q4d×3 (Example 3). The settings on record: i.v. q4d×3, 5-FU 75 mg/kg/dose, GM 120 mg/kg/dose. The protocol: The both studies were conducted as follows.
5-FU alone was administered i.v. on the same q4d×3 treatment schedule at doses of 75 mg/kg/dose (225 mg/m2/dose). 5-FU was formulated in saline fresh on each day of treatment at a concentration of 3.75 mg/mL, at pH 9.2. […] Both individual compounds and their mixture were administered according to exact body weight with injection volume being 0.2 mL/10 g body weight.
There were a total of four groups of 10 animals each, s.c.-implanted with COLO 205 human colon tumor xenografts.
Background: In xenograft studies the graft and the host belong to different species.

The test system of a further series is mice. Briefly: Acute toxicology, single IV dose in mice. In kind it is in vivo. To be noted: single IV dose; galactomannan (336 mg/m2), 112 mg/kg (336 mg/m2); combination 417/222 mg/kg (1251/666 mg/m2); n=5/group. The protocol: Acute toxicology studies of the galactomannan of the present invention were performed in mice, rats and dogs and subchronic toxicology studies were performed in rats and dogs. The following is a summary of the findings of these studies: […]

Series [2] relates to rats. Briefly: Acute toxicology, single IV dose in rats. The class given is in vivo. The protocol: Acute toxicology studies of the galactomannan of the present invention were performed in mice, rats and dogs and subchronic toxicology studies were performed in rats and dogs. The following is a summary of the findings of these studies:
In rats (n=5/sex/group), single IV doses of 140 mg/kg (840 mg/m2) 5-FU, 72 mg/kg (432 mg/m2) galactomannan or 140/72 mg/kg of the combination produced no deaths in any of the groups.
Toxic changes in body weight, feed consumption, and hematology were less severe in the rats injected with the combination, versus those injected with 5-FU alone.

For series [3], the system named is rats. Briefly: Repeat dose I.V. rat study with GMP grade galactomannan (Example 8). In kind it is in vivo. The protocol:
Studies with repeat dose I.V. in rats with up to 52-day recovery period was performed using filtered GMP grade galactomannan material containing 48 or 96 mg/kg (288 or 576 mg/m2). Five animals of each sex were sacrificed at days 5, 28 and 56.
The galactomannan of the invention has minimal histological effects with only 1/30 rats injected with 48 mg/kg dose of the GMP galactomannan clinical solution having granulomatous inflammation. […] It was concluded that galactomannan clinical solutions, up to a dose of 15 mg/kg (555 mg/m2; 9 mg/mL), is safe for human use and poses no undue risk to health.

Another series deals with beagle dogs. Briefly: 28-day canine study (Example 9). The class given is in vivo. The settings on record: galactomannan at 500 mg/m2, daily IV for four consecutive days. As to the method: In a 28-day canine study, single daily IV doses of saline, 6 mg/kg (120 mg/m2) 5-FU and ([…] (240 mg/m2) galactomannan or 4/2 mg/kg (80/40 mg/m2), 6/3.2 mg/kg (120/64 mg/m2) or 6/6 mg/kg (120/120 mg/m2) 5-FU/galactomannan were injected for four consecutive days to six groups of beagle dogs Mortality occurred in 13 of 48 dogs (five moribund sacrifices and eight found dead) between Study Days 2 and 5 (4/4 males on 5-FU; 3/4 males in the 4/2 mg/kg 5-FU/galactomannan group; 2/4 males and 1/4 females in the 6/3.2 and 6/6 mg/kg 5-FU/galactomannan groups, respectively).
Adverse effects in 5-FU groups included ataxia, prostration, vocalization, convulsions, tremors, hypersensitivity to touch, aggressive behavior (resulting in only three doses being given to the 6/3.2 5-FU/galactomanna group), emesis, salivation, soft stools and decreased red cell parameters and platelet counts. […] At the day 5 necropsy, treatment-related histological changes were largely limited to the 5-FU females. At day 29 necropsy, there were no remarkable changes in the survivors.

In the case of “(((1,4)-linked β-D-mannopyranose)17-((1,6)-linked-β-D-galactopyranose)10)12) [GM]”, in series [1], the mean survival time stood at 19.2 days, the “median to quadrupling of tumor volume” value is given as 15.5 days, the “median tumor volume after 56 days of the study” value is listed as 1813 mm3 and the tolerability result is on record as “well tolerated”. Further, in series [1], the “tumor regression after 56 days of the study” value is “no tumor regression”. Besides, the treatment-related deaths result in series [1] (10 mice per group, within two weeks) was “No deaths”. Further, in the series with mice, the “clinical signs of toxicity, death or decreased weight gain” value is “no clinical signs of toxicity, death or decreased weight gain”. Besides, the deaths entry in the series on rats [2] (5-FU 140 mg/kg, galactomannan 72 mg/kg, combination 140/72 mg/kg, n=5/sex/group) is “no deaths”. In the series with rats [2] (galactomannan 72 mg/kg (432 mg/m2) alone), the untoward effects result is listed as “no significant untoward effects”. In addition, in the series with rats [3] (48 mg/kg dose of GMP galactomannan clinical solution), the “rats having granulomatous inflammation” value was 1/30. In addition, the “rats having granulomatous inflammation” value in the series with rats [3] (96 mg/kg dose of GMP galactomannan clinical solution) was “None of the 30”. In addition, in the series on beagle dogs, the adverse effects result is given as “no observed adverse effects”.
